Here are results for seven compounds from patent publication US12692238B2, “Substituted pyridazinone herbicides” (FMC CORPORATION, priority 2020, dated 2026).

Like-named read-outs stand apart in the source and are kept apart here.

Assay type in all cases: in vivo
Experiment [1] relates to foxtail, green (green foxtail, Setaria viridis). Put plainly: Test A preemergence, foxtail, green. As to conditions: 0 to 100 scale, 10 days. The text has this:
(§1) Seeds of plant species selected from barnyardgrass (Echinochloa crus-galli), blackgrass (Alopecurus myosuroides), corn (Zea mays), foxtail, giant (giant foxtail, Setaria faberi), foxtail, green (green foxtail, Setaria viridis), goosegrass (Eleusine indica), kochia (Bassia scoparia), oat, wild (wild oat, Avena fatua), palmer amaranth (pigweed, palmer, Amaranthus palmeri), redroot pigweed (Amaranthus retroflexus), ragweed (common ragweed, Ambrosia artemisiifolia), ryegrass, Italian (Italian ryegrass, Lolium multiflorum), and soybean (Glycine max) were planted into a blend of loam soil and sand and treated preemergence with a directed soil spray using test chemicals formulated in a non-phytotoxic solvent mixture which included a surfactant.
(§2) At the same time, plants selected from these crop and weed species and also wheat (Triticum aestivum), galium (catchweed bedstraw, Galium aparine) and horseweed (Erigeron canadensis) were planted in pots containing the same blend of loam soil and sand and treated with postemergence applications of test chemicals formulated in the same manner. Plants ranged in height from 2 to 10 cm and were in the one- to two-leaf stage for the postemergence treatment. Treated plants and untreated controls were maintained in a greenhouse for 10 days, after which time all treated plants were compared to untreated controls and visually evaluated for injury. Plant response ratings, summarized in Table A, are based on a 0 to 100 scale where 0 is no effect and 100 is complete control. A dash (-) response means no test result.

The subject of experiment [2] is blackgrass (Alopecurus myosuroides). Put plainly: Test A postemergence, blackgrass. As to conditions: Alopecurus myosuroides, post-emergence, 240 h, 10 days, read-out: Plant response rating, Blackgrass; for pest or weed control at 31 g/ha: 31 g ai/ha; for pest or weed control at 125 g/ha: 125 g ai/ha. Summed up:
(§3)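 Crop and weed plants grown in loam–sand mix were treated with compound in non-phytotoxic solvent plus surfactant, either as a preemergence soil spray after sowing or postemergence at one to two leaves. Injury ratings, 0 to 100 relative to untreated controls, were taken after 10 days.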

Another experiment relates to corn (Zea mays). Put plainly: Test A postemergence, corn. As to conditions: Zea mays, post-emergence, 240 h, 10 days; for Corn plant response rating (crop injury, 0 = no effect, 100 = complete kill) at 31 g/ha: 31 g ai/ha; for Corn plant response rating (crop injury, 0 = no effect, 100 = complete kill) at 125 g/ha: 125 g ai/ha. The essentials:
as §3

Experiment [3] concerns foxtail, green (green foxtail, Setaria viridis). Put plainly: Test A postemergence, foxtail, green. The settings on record: 10 days.
Excerpt: as §1, §2

Experiment [4] has as its system ragweed (common ragweed, Ambrosia artemisiifolia). Put plainly: Test A postemergence, ragweed. As to conditions: Ambrosia artemisiifolia, post-emergence, 240 h, 10 days, read-out: Plant response rating, Ragweed; for pest or weed control at 31 g/ha: 31 g ai/ha, postemergence, 0 to 100 scale (0 no effect, 100 complete control); for pest or weed control at 125 g/ha: Postemergence, 125 g ai/ha, 0 to 100 scale. The essentials:
as §3

For experiment [5], the system named is sedge, umbrella (small-flower umbrella sedge, Cyperus difformis). Put plainly: Test B flooded paddy test, sedge, umbrella. As to conditions: Cyperus difformis; 250 g ai/ha, Flood; visually evaluated after 10 to 14 days; read-out: Plant response rating, Sedge, Umbrella (0 to 100 scale where 0 is no effect and 100 is complete control). Summed up: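 Plants grown to the 2-leaf stage were flooded to 3 cm above the soil, and test compounds were applied directly into the paddy water, which was held at that depth throughout. After 10 to 14 days in a greenhouse, injury was visually rated against controls on a 0–100 scale (0 no effect, 100 complete control).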

The mark [6] stands for this setting: 31 g ai/ha, postemergence, 0 to 100 scale (0 no effect, 100 complete control).
The mark [7] stands for this setting: Postemergence, 125 g ai/ha, 0 to 100 scale.
The mark [8] stands for this setting: postemergence, 0 to 100 scale (0 no effect, 100 complete control).

For `CC(=O)OCOc1c(Cl)nn(C)c(=O)c1-c1c(C)sc2cccc(Cl)c12` [Compound 1, 5-[(acetyloxy)methoxy]-6-chloro-4-(4-chloro-2-methylbenzo[b]thien-3-yl)-2-methyl-3(2H)-pyridazinone], the “Plant response rating, Foxtail, Green” value in experiment [1] (31 g ai/ha) is given as 0; in experiment [1] (125 g ai/ha), 10; in experiment [3] (setting [6]), 0; in experiment [3] (setting [7]), 10. For the same compound, the pest or weed control at 31 g/ha turned out to be 0% in experiment [2] (Postemergence, 0 to 100 scale) and 70% in experiment [4]. Besides, the pest or weed control at 125 g/ha in experiment [2] (Postemergence, 0 to 100 scale) came out at 0%; in experiment [4] it was 90%. The same compound showed a Corn plant response rating (crop injury, 0 = no effect, 100 = complete kill) at 31 g/ha in the experiment on corn (Zea mays) (Postemergence, 0 to 100 scale) of 0%. The compound further showed a Corn plant response rating (crop injury, 0 = no effect, 100 = complete kill) at 125 g/ha in the experiment with corn (Zea mays) (Postemergence, 0 to 100 scale) of 0%. Besides, the pest or weed control at 250 g/ha in experiment [5] was 0%.
Consider `CC(=O)OCOc1c(C)nn(C)c(=O)c1-c1c(Br)sc2ccc(F)cc12` [Compound 2, 5-[(acetyloxy)methoxy]-4-(2-bromo-5-fluorobenzo[b]thien-3-yl)-2,6-dimethyl-3(2H)-pyridazinone], for which, in experiment [2] (Postemergence, 0 to 100 scale), the pest or weed control at 31 g/ha was found to be 30% and the pest or weed control at 125 g/ha turned out to be 30%. In the experiment with corn (Zea mays) (Postemergence, 0 to 100 scale), this compound registered a Corn plant response rating (crop injury, 0 = no effect, 100 = complete kill) at 31 g/ha of 0% and a Corn plant response rating (crop injury, 0 = no effect, 100 = complete kill) at 125 g/ha of 30%. For the same compound, in experiment [4], the pest or weed control at 31 g/ha was found to be 70% and the pest or weed control at 125 g/ha was found to be 100%. For the same compound, the pest or weed control at 250 g/ha in experiment [5] worked out at 45%.
In the case of `CC(=O)OCOc1c(Cl)nn(C)c(=O)c1-c1c(C)ccc2ccc(C)cc12` [Compound 3, 5-[(Acetyloxy)methoxy]-6-chloro-4-(2,7-dimethyl-1-naphthalenyl)-2-methyl-3(2H)-pyridazinone], in experiment [2] (Postemergence, 0 to 100 scale), the pest or weed control at 31 g/ha is 10% and the pest or weed control at 125 g/ha is 30%. In the experiment on corn (Zea mays) (Postemergence, 0 to 100 scale), the Corn plant response rating (crop injury, 0 = no effect, 100 = complete kill) at 31 g/ha was 0% and the Corn plant response rating (crop injury, 0 = no effect, 100 = complete kill) at 125 g/ha came to 20%. For the same compound, in experiment [4], the pest or weed control at 31 g/ha was 90% and the pest or weed control at 125 g/ha was 100%. Besides, in experiment [5], the pest or weed control at 250 g/ha came to 98%.
In the case of `CC(=O)OCOc1c(Cl)nn(C)c(=O)c1-c1c(C)ccc2ccccc12` [Compound 5, 5-[(acetyloxy)methoxy]-6-chloro-2-methyl-4-(2-methyl-1-naphthalenyl)-3(2H)-pyridazinone], the “Plant response rating, Foxtail, Green” value in experiment [1] (31 g ai/ha) turned out to be 50; in experiment [1] (125 g ai/ha) it was 90; in experiment [3] (setting [6]), 40; in experiment [3] (setting [7]) it was 80. The pest or weed control at 31 g/ha in experiment [2] (Postemergence, 0 to 100 scale) was 20%; in experiment [4], 80%. For the same compound, the pest or weed control at 125 g/ha in experiment [2] (Postemergence, 0 to 100 scale) was determined as 50%; in experiment [4], 90%. Moreover, the Corn plant response rating (crop injury, 0 = no effect, 100 = complete kill) at 31 g/ha in the experiment with corn (Zea mays) (Postemergence, 0 to 100 scale) is 0%. Also, the Corn plant response rating (crop injury, 0 = no effect, 100 = complete kill) at 125 g/ha in the experiment with corn (Zea mays) (Postemergence, 0 to 100 scale) turned out to be 10%. Besides, in experiment [5], the pest or weed control at 250 g/ha came to 85%.
Take `CC(=O)OCOc1c(Cl)nn(C)c(=O)c1-c1c2ccccc2cc2ccccc12` [Compound 10, 5-[(acetyloxy)methoxy]-4-(9-anthracenyl)-6-chloro-2-methyl-3(2H)-pyridazinone]: in experiment [2] (Postemergence, 0 to 100 scale), the pest or weed control at 31 g/ha stood at 30% and the pest or weed control at 125 g/ha is 0%. In addition, in the experiment on corn (Zea mays) (Postemergence, 0 to 100 scale), the Corn plant response rating (crop injury, 0 = no effect, 100 = complete kill) at 31 g/ha is 10% and the Corn plant response rating (crop injury, 0 = no effect, 100 = complete kill) at 125 g/ha is 20%. Moreover, in experiment [4], the pest or weed control at 31 g/ha worked out at 100% and the pest or weed control at 125 g/ha was 100%. In addition, the pest or weed control at 250 g/ha in experiment [5] came to 95%.
For the compound `CC(=O)OCOc1c(Cl)nn(C)c(=O)c1-c1c2ccccc2c(Cl)c2ccccc12` [Compound 11, 5-[(acetyloxy)methoxy]-6-chloro-4-(10-chloro-9-anthracenyl)-2-methyl-3(2H)-pyridazinone], in experiment [2] (Postemergence, 0 to 100 scale), the pest or weed control at 31 g/ha was determined as 40% and the pest or weed control at 125 g/ha turned out to be 10%. In the experiment on corn (Zea mays) (Postemergence, 0 to 100 scale), this compound registered a Corn plant response rating (crop injury, 0 = no effect, 100 = complete kill) at 31 g/ha of 0% and a Corn plant response rating (crop injury, 0 = no effect, 100 = complete kill) at 125 g/ha of 10%. For the same compound, in experiment [4], the pest or weed control at 31 g/ha was 100% and the pest or weed control at 125 g/ha amounted to 100%. Further, the pest or weed control at 250 g/ha in experiment [5] is 95%.
`CC(=O)OCOc1c(C)nn(C)c(=O)c1-c1c2cc(C)ccc2cc2ccc(F)cc12` [Compound 24, 5-[(acetyloxy)methoxy]-4-(2-fluoro-7-methyl-9-anthracenyl)-2,6-dimethyl-3(2H)-pyridazinone]: the pest or weed control at 31 g/ha was found to be 0% in experiment [2] (setting [8]) and 80% in experiment [4]. Also, the pest or weed control at 125 g/ha in experiment [2] (Postemergence, 0 to 100 scale) is 20%; in experiment [4] it was 100%. The same compound returned a Corn plant response rating (crop injury, 0 = no effect, 100 = complete kill) at 31 g/ha in the experiment with corn (Zea mays) (setting [8]) of 10%. In the experiment on corn (Zea mays) (Postemergence, 0 to 100 scale), this compound came in with a Corn plant response rating (crop injury, 0 = no effect, 100 = complete kill) at 125 g/ha of 20%. Moreover, in experiment [5], the pest or weed control at 250 g/ha was 80%.
